According to patent publication US5559209A, “Regulator regions of G proteins” (The General Hospital Corporation, priority 1993, dated 1996):
Where no end group is shown, it is not given here.

What was measured:
Gi2 = biological target: T1, Gi2 (Bos taurus, UniProt A7MBH9); assay: GTPγS binding, MIII-induced Gi2 activation; assay type: biochemical, bovine; conditions: 10 nM Gi2, 1 μM MIII, 5 min; read-out: IC50, attenuation of MIII-induced Gi2 activation
T1 construct: trimeric Gi2 (i.e., Gi2 αβγ) purified from bovine brain to near homogeneity; from tissue; host or cells: bovine brain
T1 sequence (A7MBH9 2-355 limits assumed): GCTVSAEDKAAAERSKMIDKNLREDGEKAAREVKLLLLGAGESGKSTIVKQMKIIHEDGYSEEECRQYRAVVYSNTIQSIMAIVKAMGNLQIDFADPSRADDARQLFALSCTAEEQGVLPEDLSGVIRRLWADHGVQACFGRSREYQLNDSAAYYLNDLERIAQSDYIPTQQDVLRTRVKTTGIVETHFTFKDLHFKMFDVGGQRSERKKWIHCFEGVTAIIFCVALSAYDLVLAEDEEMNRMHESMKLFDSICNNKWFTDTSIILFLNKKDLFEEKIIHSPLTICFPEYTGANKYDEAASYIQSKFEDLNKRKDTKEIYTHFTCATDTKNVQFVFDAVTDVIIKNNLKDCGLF
T1 sequence (P62871 2-340 partner limits assumed): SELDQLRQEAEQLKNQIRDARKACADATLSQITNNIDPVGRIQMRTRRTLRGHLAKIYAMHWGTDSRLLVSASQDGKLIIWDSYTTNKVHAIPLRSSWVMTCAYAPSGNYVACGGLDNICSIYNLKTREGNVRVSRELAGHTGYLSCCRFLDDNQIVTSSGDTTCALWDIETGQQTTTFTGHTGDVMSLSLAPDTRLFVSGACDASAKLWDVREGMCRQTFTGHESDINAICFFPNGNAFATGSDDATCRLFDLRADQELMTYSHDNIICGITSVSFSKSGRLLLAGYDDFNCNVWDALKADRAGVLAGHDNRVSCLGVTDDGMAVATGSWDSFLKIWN
T1 sequence (P63212 2-68 partner limits assumed): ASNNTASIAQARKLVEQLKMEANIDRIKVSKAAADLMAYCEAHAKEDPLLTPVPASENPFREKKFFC
Method: (§1) Materials and Methods The in vitro assays described below utilize the couplone portion of each of a number of G-coupled receptors, instead of an intact receptor molecule, as a means for activating the corresponding anticouplone or intact G-protein. […]
(§2) GTPγS binding Assay--GTPγS binding to G proteins was assayed at 37° C. in 20 mM Hepes/NaOH buffer (pH 7.4) containing 130 μM MgCl2, 110 μM EDTA and 60 nM [^35 S]GTPγS, as described previously (Okamoto et al., 1990). […] The total amount of G protein was measured as maximal GTPγS binding at room temperature, as described (Okamoto et al., Cell 67:723-730, 1991a). […] Thus, the apparent first-order rate constant for GTPγS binding (kapp), which is equal to the slope of the tangent to the GTPγS binding curve at time 0 and represents the actual GTPγS binding rate, was calculated from this equation.
The MIII peptide is a Gi /Go -activator region in the third intracellular loop of the G-coupled receptor termed M4 AChR (Okamoto et al., J. Biol. Chem. 267:8342-8346, 1992). […] In the experiments illustrated in FIG. 1D, 10 nM Go (.quadrature.) or Gi2 (.diamond-solid.) was incubated with 1 μM MIII for 2 or 5 min, respectively, and GTPγS binding was measured in the same manner as in FIG. 1A. […]

Gi1 = Gi1 (Bos taurus, UniProt P63097); assay: GTPγS binding, peptide 14-induced Gi1 activation; assay type: biochemical; conditions: high concentrations (≥30 μM) of ACGi2; 10 nM Gi1, 30 μM peptide 14, 4 min
Chain of Gi1 (P63097 2-354 limits assumed): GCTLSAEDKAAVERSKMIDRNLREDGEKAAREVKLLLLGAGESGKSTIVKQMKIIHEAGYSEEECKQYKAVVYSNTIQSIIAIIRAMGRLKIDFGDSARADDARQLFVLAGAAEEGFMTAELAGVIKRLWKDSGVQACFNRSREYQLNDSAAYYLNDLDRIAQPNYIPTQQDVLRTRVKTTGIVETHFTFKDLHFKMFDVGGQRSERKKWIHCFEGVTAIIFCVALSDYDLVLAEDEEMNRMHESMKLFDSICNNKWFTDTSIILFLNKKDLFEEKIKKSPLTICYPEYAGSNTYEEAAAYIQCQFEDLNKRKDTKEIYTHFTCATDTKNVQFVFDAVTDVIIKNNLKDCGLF
Chain of Gi1 (P62871 2-340 partner limits assumed): as the sequence (P62871 2-340 partner limits assumed) above
Chain of Gi1 (P63212 2-68 partner limits assumed): as the sequence (P63212 2-68 partner limits assumed) above
Method: (§3) GTPγS binding Assay--GTPγS binding to G proteins was assayed at 37° C. in 20 mM Hepes/NaOH buffer (pH 7.4) containing 130 μM MgCl2, 110 μM EDTA and 60 nM [^35 S]GTPγS, as described previously (Okamoto et al., 1990). GTPγS binding to polypeptides was negligible. The total amount of G protein was measured as maximal GTPγS binding at room temperature, as described (Okamoto et al., Cell 67:723-730, 1991a). [^35 S]GTPγS was purchased from DuPont-New England Nuclear. Binding of GTPγS to G proteins obeyed first-order kinetics according to the equation ln[(BT-B)/BT]=-kapp t, where B is the binding at time t and BT is the total binding observable at an infinite time. Thus, the apparent first-order rate constant for GTPγS binding (kapp), which is equal to the slope of the tangent to the GTPγS binding curve at time 0 and represents the actual GTPγS binding rate, was calculated from this equation.
Peptide 14 is capable of activating Gi1 and Gi3 as well as Gi2 (Okamoto et al., 1990). The effect of ACGi2 on peptide 14-induced activation of these Gi proteins was examined as follows: 10 nM Gi1 (.quadrature.) or Gi3 (.diamond-solid.) was incubated with 30 μM peptide 14 in the presence of various concentrations of ACGi2 for 4 min, and GTPβS binding was measured. The fractional GTPγS binding to Gi1 or Gi3 at 0% was (in 4 min^-1) 0.38 or 0.30, and that at 100% was 0.54 or 0.63, respectively.

Go = Go (Homo sapiens, UniProt P09471); assay: GTPγS binding, MIII-induced Go activation; assay type: biochemical; conditions: 10 nM Go, 1 μM MIII, 2 min
Chain of Go (P09471 2-354 limits assumed): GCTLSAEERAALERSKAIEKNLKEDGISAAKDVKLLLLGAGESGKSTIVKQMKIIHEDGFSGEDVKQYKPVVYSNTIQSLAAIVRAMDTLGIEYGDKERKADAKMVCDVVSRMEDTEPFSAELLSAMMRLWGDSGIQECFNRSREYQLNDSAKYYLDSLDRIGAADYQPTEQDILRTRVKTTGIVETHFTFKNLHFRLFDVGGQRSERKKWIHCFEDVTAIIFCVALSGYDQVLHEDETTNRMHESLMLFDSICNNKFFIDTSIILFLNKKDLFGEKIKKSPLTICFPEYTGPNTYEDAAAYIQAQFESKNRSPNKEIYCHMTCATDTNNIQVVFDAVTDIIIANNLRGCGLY
Chain of Go (P62873 2-340 partner limits assumed): as the sequence (P62871 2-340 partner limits assumed) above
Chain of Go (P59768 2-68 partner limits assumed): as the sequence (P63212 2-68 partner limits assumed) above
Method: as §3
The MIII peptide is a Gi /Go -activator region in the third intracellular loop of the G-coupled receptor termed M4 AChR (Okamoto et al., J. Biol. Chem. 267:8342-8346, 1992). This peptide has the sequence RNQVRKKRQMAARERKVTR (SEQ ID NO: 30). In the experiments illustrated in FIG. 1D, 10 nM Go (.quadrature.) or Gi2 (.diamond-solid.) was incubated with 1 μM MIII for 2 or 5 min, respectively, and GTPγS binding was measured in the same manner as in FIG. 1A. […]

Gs = biological target: T2, Gs (Bos taurus, UniProt P04896); assay: GTPγS binding, βIII-2-induced Gs activation; assay type: biochemical, bovine; conditions: 10 nM Gs, 1 μM βIII-2, 10 min
T2 construct: Trimeric Gs and Gβγ purified from bovine brain to near homogeneity; from tissue; host or cells: bovine brain
T2 sequence (P04896 2-394 limits assumed): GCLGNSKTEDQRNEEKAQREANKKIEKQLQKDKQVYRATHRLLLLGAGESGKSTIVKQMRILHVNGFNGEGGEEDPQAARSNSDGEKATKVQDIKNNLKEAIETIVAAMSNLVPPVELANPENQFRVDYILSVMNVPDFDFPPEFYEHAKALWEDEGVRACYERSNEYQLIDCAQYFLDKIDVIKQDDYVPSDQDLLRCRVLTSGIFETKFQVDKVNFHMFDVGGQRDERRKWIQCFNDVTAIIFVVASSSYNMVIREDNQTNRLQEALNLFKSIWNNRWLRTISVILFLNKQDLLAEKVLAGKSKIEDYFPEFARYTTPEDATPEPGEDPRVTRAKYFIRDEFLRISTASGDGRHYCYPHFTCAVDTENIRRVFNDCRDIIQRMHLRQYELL
T2 sequence (P62871 2-340 partner limits assumed): as the sequence (P62871 2-340 partner limits assumed) above
T2 sequence (P63212 2-68 partner limits assumed): as the sequence (P63212 2-68 partner limits assumed) above
Method: as §1, §2
GTPβS binding was measured following incubation of solubilized Gs at 10 nM with 1 μM βIII-2 (RRSSKFCLKEHKALK; SEQ ID NO: 29) in the presence of ACGi2 for 10 min. […]

mAChR-Gi2 coupling = biological target: T3, mAChR-Gi2 coupling (Bos taurus, UniProt A7MBH9); assay: GTPγS binding rate in mAChR-Gi2 reconstituted phospholipid vesicles; assay type: biochemical, porcine mAChR, bovine Gi2; conditions: 30 μM ACGi2, 10 mM acetylcholine; read-out: inhibition of acetylcholine-induced Gi2 activation
T3 construct: trimeric Gi2 purified from bovine spleen to homogeneity; from tissue; host or cells: bovine spleen (Gi2); porcine brain (mAChR)
T3 sequence (A7MBH9 2-355 limits assumed): as the sequence (A7MBH9 2-355 limits assumed) above
T3 sequence (P62871 2-340 partner limits assumed): as the sequence (P62871 2-340 partner limits assumed) above
T3 sequence (P63212 2-68 partner limits assumed): as the sequence (P63212 2-68 partner limits assumed) above
Method: as §1
as §2, with “equation. […]” for “equation.”

DAVTDVIIKNNLKDC [ACGi2, DAVTDVIIKNNLKDC]
IC50 (Gi2): 10 µM | maximal inhibition of peptide 14-induced Gi1 activation (Gi1): 30% | IC50 (Go): ~30 µM | maximal inhibition of βIII-2-stimulated Gs (Gs): 40% | inhibition at 30 µM (mAChR-Gi2 coupling): ~75%
